For one experiment, the target named is T1, SmPabB (Stenotrophomonas maltophilia, UniProt B2FR92).
T1 sequence (B2FR92 1-454): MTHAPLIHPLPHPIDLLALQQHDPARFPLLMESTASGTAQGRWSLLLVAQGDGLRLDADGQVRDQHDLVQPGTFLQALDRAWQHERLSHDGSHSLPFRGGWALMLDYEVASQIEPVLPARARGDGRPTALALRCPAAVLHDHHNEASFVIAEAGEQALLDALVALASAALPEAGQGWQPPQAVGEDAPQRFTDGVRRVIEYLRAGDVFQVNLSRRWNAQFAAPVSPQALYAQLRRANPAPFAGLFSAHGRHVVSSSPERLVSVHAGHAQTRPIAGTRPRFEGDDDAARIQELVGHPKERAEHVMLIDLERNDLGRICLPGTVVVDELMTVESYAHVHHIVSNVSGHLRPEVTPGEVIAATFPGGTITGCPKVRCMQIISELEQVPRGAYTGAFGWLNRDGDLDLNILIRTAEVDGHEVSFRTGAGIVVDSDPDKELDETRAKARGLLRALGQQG
Description: isothermal titration calorimetry. Format: binding.

The next experiment deals with T2, E. coli PabB (Escherichia coli, UniProt P05041).
T2 sequence (P05041 1-453): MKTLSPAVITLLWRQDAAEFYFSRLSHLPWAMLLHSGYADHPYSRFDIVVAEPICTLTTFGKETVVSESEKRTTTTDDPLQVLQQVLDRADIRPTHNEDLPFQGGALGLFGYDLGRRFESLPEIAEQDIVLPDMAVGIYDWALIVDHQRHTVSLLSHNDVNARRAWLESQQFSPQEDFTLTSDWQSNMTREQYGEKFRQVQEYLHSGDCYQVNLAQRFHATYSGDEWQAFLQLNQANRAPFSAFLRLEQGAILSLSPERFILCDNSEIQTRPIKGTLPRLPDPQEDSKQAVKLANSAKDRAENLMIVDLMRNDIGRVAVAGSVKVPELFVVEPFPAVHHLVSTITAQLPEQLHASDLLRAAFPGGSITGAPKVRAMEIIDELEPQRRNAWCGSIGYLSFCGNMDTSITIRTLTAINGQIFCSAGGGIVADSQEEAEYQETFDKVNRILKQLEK
Kind of experiment: LC/MS of bound ligand released from purified protein. Format: binding. As to conditions: co-purified tryptophan; vestigial regulatory site.

Experiment [1] deals with T3, E. coli PabB (aminodeoxychorismate synthase) (E. coli, UniProt P05041 1-453).
T3 sequence: T2 sequence (P05041 1-453)
Description: other fluorescence titration.

The target in experiment [2] is T4, Stenotrophomonas maltophilia PabB (aminodeoxychorismate synthase) (Stenotrophomonas maltophilia, UniProt B2FR92 2-454).
T4 sequence: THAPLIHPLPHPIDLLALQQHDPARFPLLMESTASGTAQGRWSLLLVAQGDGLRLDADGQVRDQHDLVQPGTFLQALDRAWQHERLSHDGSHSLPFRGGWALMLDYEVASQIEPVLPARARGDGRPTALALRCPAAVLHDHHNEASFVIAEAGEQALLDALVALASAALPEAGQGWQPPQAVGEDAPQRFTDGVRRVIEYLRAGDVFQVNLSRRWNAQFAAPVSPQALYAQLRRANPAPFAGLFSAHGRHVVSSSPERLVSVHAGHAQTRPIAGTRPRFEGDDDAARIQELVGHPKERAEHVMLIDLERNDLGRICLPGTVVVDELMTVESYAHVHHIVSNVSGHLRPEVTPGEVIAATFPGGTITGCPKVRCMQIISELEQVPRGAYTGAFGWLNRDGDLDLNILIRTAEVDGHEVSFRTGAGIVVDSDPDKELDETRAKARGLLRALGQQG
Kind of experiment: other fluorescence titration.

These results are taken from article PMC3532939 (Biochemistry, 2012).

Turning to `N[C@@H](Cc1c[nH]c2ccccc12)C(=O)O` [tryptophan], the Kd on SmPabB is approximately 11700 nM. Further, on E. coli PabB, the “LC/MS of bound ligand released from purified protein” value is reported as “E. coli PabB samples, as expected, contained tryptophan”.

B1: E. coli PabA (glutamine amidotransferase subunit of aminodeoxychorismate synthase) (enzyme, UniProt P00903 1-187, looked up)
chain: MILLIDNYDSFTWNLYQYFCELGADVLVKRNDALTLADIDALKPQKIVISPGPCTPDEAGISLDVIRHYAGRLPILGVCLGHQAMAQAFGGKVVRAAKVMHGKTSPITHNGEGVFRGLANPLTVTRYHSLVVEPDSLPACFDVTAWSETREIMGIRHRQWDLEGVQFHPESILSEQGHQLLANFLHR
Turning to B1, the Kd in experiment [1] was 109 nM; in experiment [2], 39 nM.
